Experimental data taken from US12559461B2, “Antibiotic adjuvant compounds” (UNIVERSITY OF NOTRE DAME DU LAC, priority 2020, dated 2026).
Where two headings read alike, the source gives them in different places.

Columns and labels:
Format in all cases: cell-based, Acinetobacter baumannii
[1] = test system: A. baumannii isolates (23 strains); assay: Minimum inhibitory concentration against AB isolates; details: Acinetobacter baumannii, compound alone
Method: Broth microdilution method for MIC determination. Day cultures (6 h) of each bacterial strain in cation adjusted Mueller Hinton II broth (CAMHB, Fisher Scientific U.S.) were subcultured to 5×10^5 CFU/mL in CAMHB. Aliquots (1 mL) were placed in culture tubes and compound was added from 10 mM stock samples in DMSO, such that compound concentration equaled highest concentration tested (200 μM). Samples were then aliquoted (200 μL) into the first wells of a 96-well plate, with all remaining wells being filled with 100 μL of initial bacterial subculture. Row one wells were mixed five times, before 100 μL was transferred to row two. Row two was then mixed five times, and 100 μL was transferred to row three. This process was repeated until the final row had been mixed; this served to serially dilute the compound. Plates were then covered with GLAD Press n'Seal and incubated under stationary conditions at 37° C. for 16 h. MIC values were then recorded as the lowest concentration at which no bacterial growth was observed.

AB5075 [2] = assay: Broth microdilution clarithromycin (CLR) potentiation and dose-response of adjuvant
How it was run: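 A. baumannii AB5075 at 5×10^5 CFU/mL in CAMHB with fixed adjuvant (DMSO ≤0.3%) and two-fold serially diluted clarithromycin or colistin, stationary 16 h at 37° C. MIC = lowest concentration without visible growth; fold reduction versus antibiotic alone. Dose-response used adjuvant at 0–30 μM.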

[3] = test system: A. baumannii isolates (23 strains); assay: Clarithromycin potentiation against AB isolates; details: adjuvant at 10 μM
Method: Broth microdilution method for antibiotic potentiation. Day cultures (6 h) of bacteria in CAMHB were subcultured to 5×10^5 CFU/mL in CAMHB. Aliquots (4 mL) were placed in culture tubes and dosed with compound from 10 mM stock samples to give the desired concentration of the compound to be tested against the particular bacterial strain; this insured non-toxic DMSO concentrations ≤0.3% in each well. 1 mL of the resulting solution was placed in a separate culture and dosed with antibiotic at the highest concentration to be tested. Bacteria treated with antibiotic alone served as the control. Row one of a 96-well plate was filled with 200 μL of the antibiotic/2-AI solution, and rows 2-12 were filled with 100 μL each of the remaining 4 mL of bacterial subculture containing adjuvant at the desired concentration, except for the control lane which contained only bacterial subculture. Row one was then mixed five times, and 100 μL was transferred to row two, which was then mixed five times before being transferred to row three. This process was repeated until all rows had been mixed, except for row twelve which would have only 2-AI to serve as a control to monitor potential toxicity. The 96-well plate was then covered in Glad Press n'Seal and incubated under stationary conditions at 37° C. for 16 h. MIC values were determined as the lowest concentration at which no bacterial growth was observed, and fold reductions were determined by comparison to antibiotic control lane.

AB5075 [4] = assay: Broth microdilution MIC of compound alone (standalone toxicity)
How it was run: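 A. baumannii 5075 subcultured to 5×10^5 CFU/mL in cation-adjusted Mueller-Hinton broth; compound twofold serially diluted from 200 μM (DMSO stock) and incubated stationary at 37° C for 16 h. MIC taken as lowest concentration with no visible growth; duplicates, repeated at least twice.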

MIC ([1]; A. baumannii strain 3560, read-out: Minimum inhibitory concentration of compound): 50 µM
MIC ([1]; A. baumannii strain 3785, read-out: Minimum inhibitory concentration of compound): 200 µM
MIC ([1]; A. baumannii strain 3806, read-out: Minimum inhibitory concentration of compound): 200 µM
MIC ([1]; A. baumannii strain 3927, read-out: Minimum inhibitory concentration of compound): > 200 µM
MIC ([1]; A. baumannii strain 4025, read-out: Minimum inhibitory concentration of compound): 100 µM
MIC ([1]; A. baumannii strain 4026, read-out: Minimum inhibitory concentration of compound): 100 µM
MIC ([1]; A. baumannii strain 4027, read-out: Minimum inhibitory concentration of compound): 200 µM
MIC ([1]; A. baumannii strain 4052, read-out: Minimum inhibitory concentration of compound): > 200 µM
MIC ([1]; A. baumannii strain 4269, read-out: Minimum inhibitory concentration of compound): > 200 µM
MIC ([1]; A. baumannii strain 4448, read-out: Minimum inhibitory concentration of compound): > 200 µM
MIC ([1]; A. baumannii strain 4456, read-out: Minimum inhibitory concentration of compound): 50 µM
MIC ([1]; A. baumannii strain 4490, read-out: Minimum inhibitory concentration of compound): > 200 µM
MIC ([1]; A. baumannii strain 4498, read-out: Minimum inhibitory concentration of compound): 100 µM
MIC ([1]; A. baumannii strain 4795, read-out: Minimum inhibitory concentration of compound): 100 µM
MIC ([1]; A. baumannii strain 4857, read-out: Minimum inhibitory concentration of compound): 50 µM
MIC ([1]; A. baumannii strain 4878, read-out: Minimum inhibitory concentration of compound): 200 µM
MIC ([1]; A. baumannii strain 4957, read-out: Minimum inhibitory concentration of compound): > 200 µM
MIC ([1]; A. baumannii strain 4991, read-out: Minimum inhibitory concentration of compound): > 200 µM
MIC ([1]; A. baumannii strain 5001, read-out: Minimum inhibitory concentration of compound): > 200 µM
MIC ([1]; A. baumannii strain 5197, read-out: Minimum inhibitory concentration of compound): > 200 µM
MIC ([1]; A. baumannii strain 5256, read-out: Minimum inhibitory concentration of compound): > 200 µM
MIC ([1]; A. baumannii strain 5711, read-out: Minimum inhibitory concentration of compound): > 200 µM
MIC ([1]; A. baumannii strain 8967, read-out: Minimum inhibitory concentration of compound): > 200 µM
MIC ([1]; remaining 20 strains, read-out: MIC values): ≥ 100 µM
MIC ([1]; three of the AB isolates, read-out: MIC values): 50 µM
CLR MIC (AB5075 [2]; compound tested at 5 μM): 8 µg/mL
Fold Reduction of CLR MIC (AB5075 [2]; compound tested at 5 μM): 4 fold
CLR MIC (AB5075 [2]; compound tested at 7.5 μM): 1 µg/mL
Fold Reduction of CLR MIC (AB5075 [2]; compound tested at 7.5 μM): 32 fold
CLR MIC (AB5075 [2]; compound tested at 10 μM): 0.5 µg/mL
Fold Reduction of CLR MIC (AB5075 [2]; compound tested at 10 μM): 64 fold
CLR MIC (AB5075 [2]; compound tested at 20 μM): 0.5 µg/mL
Fold Reduction of CLR MIC (AB5075 [2]; compound tested at 20 μM): 64 fold
CLR MIC (AB5075 [2]; compound tested at 30 μM): 0.5 µg/mL
Fold Reduction of CLR MIC (AB5075 [2]; compound tested at 30 μM): 64 fold
CLR MIC + adjuvant ([3]; A. baumannii strain 3560): 2 µg/mL
CLR MIC + adjuvant ([3]; A. baumannii strain 3785): 4 µg/mL
CLR MIC + adjuvant ([3]; A. baumannii strain 3806): 0.5 µg/mL
CLR MIC + adjuvant ([3]; A. baumannii strain 3927): 2 µg/mL
CLR MIC + adjuvant ([3]; A. baumannii strain 4025): 1 µg/mL
CLR MIC + adjuvant ([3]; A. baumannii strain 4026): 4 µg/mL
CLR MIC + adjuvant ([3]; A. baumannii strain 4027): 1 µg/mL
CLR MIC + adjuvant ([3]; A. baumannii strain 4052): 1 µg/mL
CLR MIC + adjuvant ([3]; A. baumannii strain 4269): 2 µg/mL
CLR MIC + adjuvant ([3]; A. baumannii strain 4448): 2 µg/mL
CLR MIC + adjuvant ([3]; A. baumannii strain 4456): 2 µg/mL
CLR MIC + adjuvant ([3]; A. baumannii strain 4490): 2 µg/mL
CLR MIC + adjuvant ([3]; A. baumannii strain 4498): 2 µg/mL
CLR MIC + adjuvant ([3]; A. baumannii strain 4795): 2 µg/mL
CLR MIC + adjuvant ([3]; A. baumannii strain 4857): 1 µg/mL
CLR MIC + adjuvant ([3]; A. baumannii strain 4878): 2 µg/mL
CLR MIC + adjuvant ([3]; A. baumannii strain 4957): 4 µg/mL
CLR MIC + adjuvant ([3]; A. baumannii strain 4991): 2 µg/mL
CLR MIC + adjuvant ([3]; A. baumannii strain 5001): 4 µg/mL
CLR MIC + adjuvant ([3]; A. baumannii strain 5197): 2 µg/mL
CLR MIC + adjuvant ([3]; A. baumannii strain 5256): 1 µg/mL
CLR MIC + adjuvant ([3]; A. baumannii strain 5711): 4 µg/mL
CLR MIC + adjuvant ([3]; A. baumannii strain 8967): 1 µg/mL
Compound: Cl.Nc1nc(-c2ccc(NC(=O)c3ccc(Cl)c(Cl)c3)cc2F)c[nH]1 [Compound 15b, N-(4-(2-amino-1H-imidazol-4-yl)-3-fluorophenyl)-3,4-dichlorobenzamide hydrochloride]
MIC (AB5075 [4]; Acinetobacter baumannii): > 200 µM
MIC (AB5075 [4]; hydrochloride): >200 µM
